Publication PMC8901636, “Preclinical studies of Flonoltinib Maleate, a novel JAK2/FLT3 inhibitor, in treatment of JAK2^V617F-induced myeloproliferative neoplasms” (Blood Cancer Journal, 2022)
Read-outs that look alike come from different tables or passages of the source.

Columns and labels:
[1] = tested on: JAK2/JAK2 signaling; experiment: Cytokine-stimulated cell-based assay, GM-CSF-induced p-STAT5; settings: western blotting
[2] = tested on: Ba/F3-JAK2^WT; experiment: MTT assay for cell proliferation; type: cell-based, Murine; settings: Mus musculus, 72 h, read-out: IC50(μM) ± SD, tumor cell proliferation
Protocol: (§1) For in vitro inhibition assays, cells were seeded in 96-well culture plates with a density of 15,000–20,000 cells/well after the cells reached 70–90% confluence. […] MTT (3-(4, 5-dimethylthiazol-2-yl)-2, 5-diphenyltetrazolium bromide) (Cat. No. 1334GR001; BioFroxx) assay was conducted in order to examine viability. The IC50 values were fitted using GraphPad Prism 7.0.

[3] = tested on: Ba/F3-EPOR-JAK2^V617F cells; experiment: Ba/F3-EPOR-JAK2^V617F malignancy mouse model; settings: for spleen suppression rate: 16 days; for median survival time: vehicle 19 days
[4] = Bioavailability; settings: rat, in vivo; rats; data not shown
[5] = target: TYK2 (Homo sapiens, UniProt P29597); experiment: In vitro kinase assay
[6] = tested on: normal human CD34^+ cells; experiment: Normal human CD34+ cells from PB mononuclear cells of healthy donors; type: cell-based; settings: 48 h
Protocol: To further understand the effect of FM on normal mice and normal human CD34^+ cells, we conducted a further analysis on CD34^+ cells. For normal mice, we measured the proportion of CD34^+ in the peripheral blood of BALB/c mice on Day 0, and then mice were treated with FM 30 mg/kg p.o. twice a day. […] To investigate the effect of FM on normal human CD34^+ cells, we collected mononuclear cells of PB acquired from healthy donors. […] Therefore, in the future phase I clinical trials, we should examine the myelosuppressive effects of FM in patients with MPN.
(A) Normal BALB/c mice were treated with vehicle and FM 30mg/kg p.o. twice a day. FACS analysis of the percentage of CD34^+ cells on Day 0, 7, 14 and 21 (n = 7). (B) Mononuclear cells were isolated from the PB of healthy donors and CD34^+ cells were analyzed after incubated with FM after 48h.

[7] = tested on: JAK2^V617F; experiment: JAK2^V617F bone marrow transplantation (BMT) myelofibrosis model; type: in vivo, BALB/c mice; settings: for inhibition of splenomegaly: figure prints it with a minus sign over Spleen Wight (mg); for median survival time: vehicle 133.5 days; for BM Reticulin, fibrosis grade: bone marrow, WHO grading, vehicle MF-2
[8] = tested on: Ba/F3-JAK2^V617F cells; experiment: Ba/F3-JAK2^V617F disease model; settings: for inhibition of the spleen growth: 22 days, figure prints it with a minus sign over Spleen Weight (mg); for median survival: vehicle 25 days
[9] = target: JAK3 (Homo sapiens, UniProt P52333); experiment: In vitro kinase assay
[10] = tested on: HEL; experiment: MTT assay for cell proliferation; type: cell-based; settings: Homo sapiens, 72 h, read-out: IC50(μM) ± SD, tumor cell proliferation
Protocol: as §1

[11] = tested on: Ba/F3-EPOR; experiment: MTT assay for cell proliferation; type: cell-based, Murine; settings: Mus musculus, 72 h, read-out: IC50(μM) ± SD, tumor cell proliferation
Protocol: as §1

[12] = tested on: JAK1/TYK2 pathway; experiment: Cytokine-stimulated cell-based assay, IFN-α-induced p-STAT1; settings: western blotting
[13] = tested on: Ba/F3-EPOR-JAK2^V617F; experiment: MTT assay for cell proliferation; type: cell-based, Murine; settings: Mus musculus
Protocol: as §1

[14] = PK and tissue distribution after repeated oral administration in Ba/F3-EPOR-JAK2^V617F tumor-bearing mice; type: in vivo; settings: BALB/c nude, mouse, oral, 30 mg/kg, repeated
[15] = brain, read-out: FM concentration, Brain
[16] = heart, read-out: FM concentration, Heart
[17] = intestine, read-out: FM concentration, Intestine
[18] = kidney, read-out: FM concentration, Kidney

Sequence of JAK3 (P52333 whole entry): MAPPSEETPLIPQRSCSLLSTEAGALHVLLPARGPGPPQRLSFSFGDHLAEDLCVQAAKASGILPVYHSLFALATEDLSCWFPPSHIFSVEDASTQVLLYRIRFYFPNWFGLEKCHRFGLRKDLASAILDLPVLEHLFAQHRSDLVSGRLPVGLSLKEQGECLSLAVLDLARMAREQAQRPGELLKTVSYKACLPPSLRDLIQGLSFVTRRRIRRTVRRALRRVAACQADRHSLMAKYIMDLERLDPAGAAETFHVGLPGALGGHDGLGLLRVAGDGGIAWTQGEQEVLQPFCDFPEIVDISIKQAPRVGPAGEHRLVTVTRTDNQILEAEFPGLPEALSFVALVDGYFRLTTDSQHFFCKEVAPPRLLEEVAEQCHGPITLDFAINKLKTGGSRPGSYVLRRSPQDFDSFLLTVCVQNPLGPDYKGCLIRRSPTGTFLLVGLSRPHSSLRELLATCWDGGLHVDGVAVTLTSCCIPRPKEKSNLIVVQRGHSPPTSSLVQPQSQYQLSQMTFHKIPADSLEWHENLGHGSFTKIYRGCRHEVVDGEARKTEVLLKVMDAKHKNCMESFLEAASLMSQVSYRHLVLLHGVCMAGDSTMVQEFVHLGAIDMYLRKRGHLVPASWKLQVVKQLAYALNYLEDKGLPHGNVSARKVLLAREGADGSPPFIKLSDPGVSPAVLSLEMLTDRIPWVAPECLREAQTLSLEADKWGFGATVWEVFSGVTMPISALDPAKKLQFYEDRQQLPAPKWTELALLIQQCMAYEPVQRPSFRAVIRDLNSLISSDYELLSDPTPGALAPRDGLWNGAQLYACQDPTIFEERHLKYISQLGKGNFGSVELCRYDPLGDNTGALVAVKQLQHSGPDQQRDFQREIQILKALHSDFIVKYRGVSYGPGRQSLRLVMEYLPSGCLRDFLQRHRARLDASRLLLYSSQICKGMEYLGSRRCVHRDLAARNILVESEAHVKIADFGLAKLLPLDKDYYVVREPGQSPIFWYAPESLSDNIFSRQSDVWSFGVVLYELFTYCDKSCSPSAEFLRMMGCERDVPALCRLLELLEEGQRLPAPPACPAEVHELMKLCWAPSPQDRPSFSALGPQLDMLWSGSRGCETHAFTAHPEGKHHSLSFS
Sequence of TYK2 (P29597 whole entry): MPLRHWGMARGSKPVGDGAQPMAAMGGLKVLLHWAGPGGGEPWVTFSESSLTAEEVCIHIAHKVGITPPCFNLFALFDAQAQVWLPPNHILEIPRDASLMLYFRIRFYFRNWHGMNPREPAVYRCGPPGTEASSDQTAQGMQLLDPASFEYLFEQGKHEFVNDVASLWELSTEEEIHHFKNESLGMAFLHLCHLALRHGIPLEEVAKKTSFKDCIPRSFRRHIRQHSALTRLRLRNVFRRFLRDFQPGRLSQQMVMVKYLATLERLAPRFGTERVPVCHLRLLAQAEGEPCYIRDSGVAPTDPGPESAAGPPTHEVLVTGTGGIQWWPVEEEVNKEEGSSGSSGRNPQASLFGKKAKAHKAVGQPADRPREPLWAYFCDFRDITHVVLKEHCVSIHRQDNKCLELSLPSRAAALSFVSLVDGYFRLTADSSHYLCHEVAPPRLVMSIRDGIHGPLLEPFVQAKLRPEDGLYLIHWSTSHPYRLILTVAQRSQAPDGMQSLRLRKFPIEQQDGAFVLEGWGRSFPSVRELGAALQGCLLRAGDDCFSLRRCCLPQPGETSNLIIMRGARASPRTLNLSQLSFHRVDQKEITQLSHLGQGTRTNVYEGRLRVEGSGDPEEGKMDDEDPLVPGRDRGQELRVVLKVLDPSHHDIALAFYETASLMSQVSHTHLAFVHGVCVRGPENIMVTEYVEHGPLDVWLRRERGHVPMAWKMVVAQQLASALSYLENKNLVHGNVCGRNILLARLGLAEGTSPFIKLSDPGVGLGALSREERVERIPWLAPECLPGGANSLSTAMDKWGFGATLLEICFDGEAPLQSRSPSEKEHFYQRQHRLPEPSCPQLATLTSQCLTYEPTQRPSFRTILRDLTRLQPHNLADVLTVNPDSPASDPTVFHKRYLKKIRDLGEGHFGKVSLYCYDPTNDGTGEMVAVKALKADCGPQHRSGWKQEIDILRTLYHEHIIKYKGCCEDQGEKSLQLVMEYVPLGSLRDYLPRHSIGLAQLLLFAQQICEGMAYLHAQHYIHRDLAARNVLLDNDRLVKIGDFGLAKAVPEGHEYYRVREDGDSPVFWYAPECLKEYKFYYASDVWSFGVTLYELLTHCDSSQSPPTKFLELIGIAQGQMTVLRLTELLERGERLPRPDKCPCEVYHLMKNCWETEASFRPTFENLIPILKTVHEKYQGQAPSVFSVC

Cc1cnc(Nc2ccc(N3CCC(N(C)CCO)CC3)c(F)c2)nc1-c1cnn(C(C)C)c1 [FM, 2-((1-(2-fluoro-4-((4-(1-isopropyl-1H-pyrazol-4-yl)-5-methylpyrimidin-2-yl)amino)phenyl)piperidin-4-yl)(methyl)amino)ethan-1-ol]
IC50 [1]: 120 nM | IC50 [2]: 0.39 ± 0.2 µM | spleen suppression rate ([3]; 15 mg/kg bid p.o.): -35.67% | median survival time ([3]; 15 mg/kg bid p.o.): 22 days | spleen suppression rate ([3]; 30 mg/kg bid p.o.): -79.79% | median survival time ([3]; 30 mg/kg bid p.o.): 25 days | spleen suppression rate ([3]; 45 mg/kg bid p.o.): -101.08% | median survival time ([3]; 45 mg/kg bid p.o.): 25 days | visceral toxicity, tissues of treated mice ([3]; data not shown): did not cause obvious visceral toxicity | bioavailability [4]: ~60% | IC50 [5]: 65 nM | effect on normal human CD34^+ cells [6]: general inhibitory effect | inhibition of splenomegaly ([7]; 15 mg/kg bid p.o.): 97.11% | median survival time ([7]; 15 mg/kg bid p.o.): > 180 days | inhibition of splenomegaly ([7]; 30 mg/kg bid p.o.): 101.62% | median survival time ([7]; 30 mg/kg bid p.o.): > 180 days | inhibition of splenomegaly ([7]; 45 mg/kg bid p.o.): 101.24% | median survival time ([7]; 45 mg/kg bid p.o.): > 180 days | BM Reticulin, fibrosis grade ([7]; 30 mg/kg): non-MF | BM Reticulin, fibrosis grade ([7]; 45 mg/kg): non-MF | inhibition of the spleen growth ([8]; 15 mg/kg bid p.o.): 72.56% | median survival ([8]; 15 mg/kg bid p.o.): 30 days | inhibition of the spleen growth ([8]; 30 mg/kg bid p.o.): 97.92% | median survival ([8]; 30 mg/kg bid p.o.): 31 days | body weight during treatment ([8]; any dose): no obvious body weight decrease | IC50 [9]: 557 nM | IC50 [10]: 0.26 ± 0.2 µM | IC50 [11]: 0.55 ± 0.13 µM | IC50 [12]: > 5000 nM | IC50 ([13]; 72 h, read-out: IC50(μM) ± SD, tumor cell proliferation): 0.78 ± 0.21 µM | IC50 ([13]; as quoted in PK/PD text, read-out: IC50 value of Ba/F3-EPOR-JAK2^V617F cells in vitro): 0.79 ± 0.01 µM | concentration at 0 h [14, 15]: 6.3 ± 3.68 ng/g | concentration at 0.5 h [14, 15]: 283 ± 93.8 ng/g | concentration at 2 h [14, 15]: 369 ± 113 ng/g | concentration at 4 h [14, 15]: 492 ± 754 ng/g | concentration at 8 h [14, 15]: 47 ± 31.3 ng/g | concentration at 12 h [14, 15]: 10.8 ± 4.65 ng/g | concentration at 0 h [14, 16]: 7.06 ± 1.49 ng/g | concentration at 0.5 h [14, 16]: 1890 ± 756 ng/g | concentration at 2 h [14, 16]: 1320 ± 674 ng/g | concentration at 4 h [14, 16]: 578 ± 356 ng/g | concentration at 8 h [14, 16]: 357 ± 376 ng/g | concentration at 12 h [14, 16]: 15.8 ± 11.3 ng/g | concentration at 0 h [14, 17]: 21.4 ± 19.1 ng/g | concentration at 0.5 h [14, 17]: 31200 ± 12600 ng/g | concentration at 2 h [14, 17]: 4210 ± 1320 ng/g | concentration at 4 h [14, 17]: 9610 ± 6020 ng/g | concentration at 8 h [14, 17]: 1380 ± 1370 ng/g | concentration at 12 h [14, 17]: 250 ± 337 ng/g | concentration at 0 h [14, 18]: 16.6 ± 1.41 ng/g | concentration at 0.5 h [14, 18]: 11800 ± 3010 ng/g | concentration at 2 h [14, 18]: 7560 ± 1990 ng/g | concentration at 4 h [14, 18]: 4640 ± 1860 ng/g | concentration at 8 h [14, 18]: 1790 ± 1450 ng/g
